From PubChem BioAssay (NCI)
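Grown in 96-well plates, cells were treated for 48 hours with each compound at five concentrations. Insufficient inhibition: endpoint recorded as highest concentration tested. Here, GI50 denotes the concentration required for 50% inhibition of growth. TGI: concentration producing complete growth inhibition.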

Columns and labels:
Assay in all cases: DTP human tumour cell line panel, 48 h
[1] = test system: SR leukemia
[2] = test system: OVCAR-5 ovarian
[3] = test system: SK-OV-3 ovarian
[4] = test system: UACC-62 melanoma
[5] = test system: NCI-H226 lung
[6] = test system: MDA-MB-231 breast
[7] = test system: RPMI-8226 leukemia
[8] = test system: MOLT-4 leukemia
[9] = test system: T-47D breast
[10] = test system: BT-549 breast

Row | Compound | GI50 [1] [µM] | TGI [1] [µM] | GI50 [2] [µM] | TGI [2] [µM] | GI50 [3] [µM] | TGI [3] [µM] | GI50 [4] [µM] | TGI [4] [µM] | GI50 [5] [µM] | TGI [5] [µM] | TGI [6] [µM] | TGI [7] [µM] | TGI [8] [µM] | TGI [9] [µM] | TGI [10] [µM]
1 | c1cncc([O][Ge]([O]c2cccnc2)([O]c2cccnc2)[O]c2cccnc2)c1 | > 100 | > 100 | > 100 | > 100 | > 100 | > 100 | > 100 | > 100 | > 100 | > 100 | – | – | – | – | –
2 | C=CCOC(=O)N1c2ccc(O)cc2[C@@]23O[C@@]24[C@@H]1C#C/C=C\C#C[C@]3(O)C(=O)C[C@@H]4C | – | 42.3 | – | > 100 | – | – | – | > 100 | – | > 100 | > 100 | > 100 | 49.4 | > 100 | –
3 | Cc1cc(C)n2c(nc3ccccc32)c1C#N | – | – | – | > 100 | – | > 100 | – | > 100 | – | > 100 | > 100 | – | > 100 | > 100 | > 100
4 | CC(C)(CN1CCCCC1)C(=O)CC(SCCS(=O)(=O)O)c1ccc(Cl)cc1 (stereo not drawn) | – | 4.82 | – | 11.4 | – | 28.8 | – | 13.6 | – | 27.9 | 6.61 | 6.65 | 6.63 | – | 22.7
5 | Cc1nc(Cc2n[nH]c(C)n2)n[nH]1 | – | > 100 | – | > 100 | – | > 100 | – | > 100 | – | – | > 100 | > 100 | > 100 | – | > 100
6 | CCOC(=O)c1c(-c2ccccc2)c(C)cn1C | – | > 10 | – | > 10 | – | > 10 | – | > 10 | – | > 10 | 0.772 | – | > 10 | – | > 10
7 | COc1ccc(/C=N/NC(=S)Nc2cc(C)ccc2OC)cc1 | – | 41.9 | – | 73 | – | > 100 | – | > 100 | – | – | – | 27.6 | 29.2 | > 100 | 88.8
8 | O=C(c1ccccc1)c1cc(Cl)ccc1NCn1nnc2ccccc21 | – | > 100 | – | – | – | > 100 | – | > 100 | – | > 100 | – | > 100 | > 100 | – | –
9 | CCc1cc2c(c3c1CCCC3=O)CC1(C2)Cc2cc(CC)c3c(c2C1)C(=O)CCC3 | – | 75.1 | – | > 100 | – | > 100 | – | – | – | > 100 | > 100 | > 100 | > 100 | > 100 | –
10 | CN(C)C(=O)Oc1ccc(C(=S)Nc2ccccc2)cc1 | – | > 100 | – | > 100 | – | > 100 | – | > 100 | – | – | – | > 100 | 64 | > 100 | 79.7
11 | Cc1ccc(NC(=O)C(=O)Cc2cccc[n+]2[O-])cc1C | – | > 100 | – | > 100 | – | > 100 | – | > 100 | – | > 100 | – | > 100 | > 100 | – | –
12 | c1ccc(Nc2nnc(CCCCCCCCc3nnc(Nc4ccccc4)o3)o2)cc1 | – | – | – | > 100 | – | > 100 | – | – | – | > 100 | > 100 | – | > 100 | – | > 100
13 | O=c1c2cc(I)ccc2nc(-c2cccs2)n1O | – | > 100 | – | > 100 | – | – | – | > 100 | – | > 100 | – | > 100 | > 100 | 77.5 | > 100
14 | CSc1nc(C)c2c(n1)N(c1ccc(Cl)cc1)CC2 | – | > 100 | – | > 100 | – | > 100 | – | > 100 | – | > 100 | > 100 | > 100 | > 100 | > 100 | –
15 | CC(=O)C(C(C)=O)[C@H]1OC(C)(C)O[C@H]1[C@H]1COC(C)(C)O1 | – | – | – | > 100 | – | > 100 | – | > 100 | – | – | 89 | – | > 100 | > 100 | 90.5
16 | COC(=O)c1ccccc1C1CN=NC12Cc1c(C)ccc(C)c1C2=O (stereo not drawn) | – | – | – | > 100 | – | > 100 | – | > 100 | – | > 100 | > 100 | – | > 100 | > 100 | > 100
17 | O=C(/C(=C/c1ccc(O)cc1)c1ccccc1)c1ccccc1 | – | 61.2 | – | 32 | – | 40.2 | – | 27.1 | – | 30.8 | – | 42.3 | 37.3 | – | –
18 | N#Cc1c(N)nc(Sc2ccccc2N)c(C#N)c1-c1ccccc1 | – | > 100 | – | > 100 | – | – | – | 26.6 | – | > 100 | 45.5 | > 100 | > 100 | – | 95.9
19 | COc1ccc2c(c1)CC[C@@H]1C2CC[C@]2(C)C(=C=CP(=O)(O)O)CCC12 (stereo partly drawn) | – | > 100 | – | > 100 | – | > 100 | – | > 100 | – | > 100 | – | > 100 | – | > 100 | –
